Test results from the supplement of paper PMC10307832.

How the values were obtained:
Trametinib + Decitabine = compound: CC(=O)Nc1cccc(-n2c(=O)n(C3CC3)c(=O)c3c(Nc4ccc(I)cc4F)n(C)c(=O)c(C)c32)c1 [Trametinib] + Nc1ncn([C@H]2C[C@H](O)[C@@H](CO)O2)c(=O)n1 [Decitabine] (partner 2 µM); experiment: relative viability (nuclei count vs DMSO), 5 days (fraction); higher = more cells survive
Outline: (§1)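 Dosing by pin tool came one day after lung cancer cell lines were seeded in 1536-well plates, using either one drug or a fixed anchor-drug dose plus five library-drug doses (not always all listed) in √10 steps. After 5 days, nuclei were counted on 4× images. Relative viability is treated-well nuclei count divided by vehicle-well nuclei count, and values are medians of duplicate plates.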

[1] = compound: CN1C=C(C2=CC=CC=C21)/C=C\3/C4=C(C=CC=N4)NC3=O + CC(=O)Nc1cccc(-n2c(=O)n(C3CC3)c(=O)c3c(Nc4ccc(I)cc4F)n(C)c(=O)c(C)c32)c1 [Trametinib] (partner 0.02 µM); experiment: as above
Outline: as §1

Row | Cell Line | relative viability (Trametinib + Decitabine; first compound 0.0025 µM) | relative viability (Trametinib + Decitabine; first compound 0.007906 µM) | relative viability (Trametinib + Decitabine; first compound 0.025 µM) | relative viability (Trametinib + Decitabine; first compound 0.25 µM) | relative viability ([1]; first compound 0.02 µM) | relative viability ([1]; first compound 0.06325 µM) | relative viability ([1]; first compound 0.2 µM) | relative viability ([1]; first compound 0.6325 µM) | relative viability ([1]; first compound 2 µM) | relative viability (Trametinib + Decitabine; first compound 0.07906 µM)
1 | NCI-H2405 | 0.777 | 0.66 | 0.586 | 0.544 | 0.686 | 0.561 | 0.564 | 0.657 | 0.617 | 
2 | NCI-H1666 | 0.742 | 0.684 | 0.622 | 0.5 | 0.987 | 0.832 | 0.901 | 0.857 | 0.925 | 0.602
3 | NCI-H358 | 0.2 | 0.191 | 0.142 | 0.155 | 0.12 | 0.127 | 0.116 | 0.136 | 0.117 | 0.209
4 | H3255 | 0.552 | 0.572 | 0.487 | 0.378 | 0.726 |  | 0.57 | 0.775 | 0.668 | 0.518
5 | LCLC-103H | 0.754 | 0.68 | 0.692 | 0.596 | 0.645 | 0.691 | 0.718 | 0.667 | 0.681 | 0.689
6 | NCI-H2347 | 0.521 | 0.514 | 0.395 | 0.397 | 0.246 | 0.271 | 0.296 | 0.319 | 0.274 | 0.358
7 | LK-2 | 0.309 | 0.259 | 0.181 | 0.147 |  | 0.683 | 0.743 | 0.701 | 0.794 | 0.18
8 | NCI-H2342 | 0.775 | 0.69 | 0.646 | 0.637 | 0.921 | 0.753 | 0.725 | 0.655 | 0.686 | 0.673
9 | HCC-15 | 0.519 | 0.464 | 0.501 | 0.234 | 0.411 | 0.392 | 0.403 | 0.377 | 0.367 | 0.248
10 | SW 1573 | 0.393 | 0.37 | 0.317 | 0.181 | 0.531 | 0.576 | 0.571 | 0.687 | 0.712 | 0.308
11 | NCI-H838 | 0.466 | 0.416 | 0.457 | 0.403 | 0.467 | 0.413 | 0.527 | 0.469 | 0.459 | 0.448
12 | RERF-LC-KJ | 0.683 | 0.68 | 0.609 | 0.475 | 0.887 | 0.835 | 0.771 | 0.804 | 0.822 | 0.695
13 | ChaGo-K-1 | 0.52 | 0.494 | 0.576 | 0.497 | 0.864 | 0.917 | 0.868 | 0.871 | 0.871 | 0.467
14 | NCI-H441 | 0.272 | 0.248 | 0.259 | 0.168 | 0.468 | 0.511 | 0.492 | 0.544 | 0.52 | 0.25
15 | NCI-H2170 | 0.491 | 0.451 |  | 0.425 | 0.915 | 0.949 | 0.917 | 0.954 | 0.875 | 0.435
16 | PC-14 | 0.229 | 0.184 | 0.286 | 0.125 | 0.713 | 0.69 | 0.692 | 0.747 | 0.78 | 0.145
17 | NCI-H2009 | 0.306 | 0.303 | 0.247 | 0.267 | 0.261 | 0.255 | 0.293 | 0.296 | 0.263 | 0.273

Row | Cell Line | relative viability (Trametinib + Decitabine; first compound 0.0025 µM) | relative viability (Trametinib + Decitabine; first compound 0.007906 µM) | relative viability (Trametinib + Decitabine; first compound 0.025 µM) | relative viability (Trametinib + Decitabine; first compound 0.25 µM) | relative viability ([1]; first compound 0.02 µM) | relative viability ([1]; first compound 0.06325 µM) | relative viability ([1]; first compound 0.2 µM) | relative viability ([1]; first compound 0.6325 µM) | relative viability ([1]; first compound 2 µM) | relative viability (Trametinib + Decitabine; first compound 0.07906 µM)
18 | NCI-H1395 | 0.705 | 0.597 | 0.736 | 0.555 | 0.946 | 0.976 | 1.01 | 0.98 | 1.07 | 0.693
19 | NCI-H1437 | 0.574 | 0.471 | 0.557 | 0.431 | 0.596 | 0.593 | 0.545 | 0.453 | 0.531 | 0.394
20 | NCI-H647 | 0.39 | 0.349 | 0.377 | 0.19 | 0.532 | 0.404 | 0.41 | 0.38 | 0.404 | 0.344
21 | NCI-H1793 | 0.458 | 0.4 | 0.447 | 0.228 | 0.526 | 0.611 | 0.396 | 0.441 | 0.387 | 0.334
22 | SK-MES-1 | 0.381 | 0.304 | 0.341 | 0.273 | 0.509 | 0.603 | 0.538 | 0.596 | 0.54 | 0.247
23 | NCI-H2087 | 0.207 | 0.203 | 0.148 | 0.125 | 0.149 | 0.208 | 0.153 | 0.189 | 0.215 | 0.117
24 | BEN | 0.768 | 0.663 | 0.5 | 0.654 | 1.05 | 0.981 | 1 | 0.966 | 1.18 | 0.506
25 | NCI-H3122 | 0.416 | 0.383 | 0.315 | 0.268 | 0.153 | 0.21 | 0.227 | 0.242 | 0.269 | 0.279
26 | LCLC-97TM1 | 0.275 | 0.287 | 0.206 | 0.169 |  | 0.19 | 0.189 | 0.198 | 0.19 | 0.203
27 | NCI-H2228 |  |  |  |  | 0.379 | 0.464 | 0.24 | 0.285 | 0.566 | 
28 | COR-L23 | 0.428 | 0.435 | 0.329 | 0.293 | 0.519 | 0.575 | 0.576 | 0.545 | 0.606 | 0.372
29 | EMC-BAC-2 | 0.974 | 0.95 | 0.827 | 0.5 | 0.926 | 0.872 | 0.892 | 0.927 | 0.956 | 
30 | NCI-H1944 | 0.446 | 0.379 | 0.403 | 0.294 | 0.359 | 0.359 |  | 0.405 | 0.444 | 0.386
31 | A-427 | 0.522 | 0.585 | 0.541 | 0.418 | 0.796 | 0.721 |  | 0.708 | 0.813 | 0.525
32 | NCI-H520 | 0.445 | 0.504 | 0.535 | 0.473 | 0.542 | 0.589 | 0.621 | 0.716 | 0.68 | 0.502
33 | NCI-H650 | 0.346 | 0.294 | 0.345 | 0.261 | 0.928 | 0.943 |  | 0.942 | 0.907 | 0.301
